# Test results taken from patent publication US20100247503A1, “METHOD FOR OBTAINING A SOLID COMPOSITION WITH RHODOTORULA MINUTA, WHICH IS EFFECTIVE FOR THE BIOLOGICAL CONTROL OF ANTHRACNOSE, AND RESULTING COMPOSITION” (priority 2006, published 2010).
# How the values were obtained:
# Format in all cases: in vivo
# [1] = tested on: Colletotrichum gloeosporioides; assay: Field tests with liquid compositions, pre-harvest application, severity of anthracnose on mango fruit; settings: mango cv. Kent, five monthly pre-harvest sprays, fruit stored 15 days at 20° C., 85% RH, R. minuta 10^8, B. subtilis 10^6, mix 10^6+10^4 UFC/mL, Benomyl 0.5 g/L
# Text: (§1) Application of treatments in the field. To verify field effectiveness we used an eight-year old commercial mango orchard cv. Kent, located in El Rosario, Sinaloa, Mexico. We selected the trees homogeneously to distribute them for each treatment (three trees per treatment). In each treatment there was a monthly application (five in total), using a backpack pump sprinkler operated at 400 pounds of pressure. We started during flowering (February) until the harvest (June or July), spraying suspensions of fresh or dried cells (previously hydrated), produced in semi-industrial fermenters. We sprayed 7 L of cell suspension on each selected mango tree, until all the foliage was wet. As a control treatment, we sprayed 7 L of irrigation water.
# (§2) Quantifying the severity of anthracnose. For each treatment, 100 mango fruits were harvested at physiological maturity (Báez et al., 1993), and were stored under simulated marketing conditions at 20° C. and 85% relative humidity. We evaluated the severity of the disease after a minimum of 15 days of storage, using the presence of symptoms as indicator of the disease (anthracnose) in the fruit. […]
# (§3) Statistical analysis. The study of the severity of the disease in mango fruits was analyzed using a completely randomized block design. […] The difference between treatments was determined by the Tukey test (p=0.05). […]
# [2] = tested on: mango fruit (Mangifera indica) cv. Kent; assay: Assessing the quality of the fruit (weight loss, pH, titratable acidity, total soluble solids) during storage; settings: 85% RH
# Procedure: Assessing the quality of the fruit. Weight loss was assessed every third day by difference in weight with respect to the initial weight of the fruit, expressed as a percentage (Diaz-Pérez, 1998). The pH, titratable acidity (TA) and total soluble solids (TSS) were quantified according to the methodology proposed by the AOAC (1998) at 0, 6 and 12 days of storage. To determine the pH and acidity we used a Mettler automatic titrator (model DL-21) and the results were expressed in units of pH and percentage of citric acid, respectively. Total soluble solids were determined with a Leica Abbe Mark II type refractometer, temperature-compensated and previously calibrated with pure water. The results were expressed in Brix degrees (°Brix). For quality parameters, a fruit was selected as an experimental unit and five replications were used.
# Statistical analysis. The study of the severity of the disease in mango fruits was analyzed using a completely randomized block design. Data from the evaluations of each treatment were subjected to unilateral variance analysis by Friedman ranges (p<0.05) using the SAS statistical system (SAS, 1998). The difference between treatments was determined by the Tukey test (p=0.05). For differences in the analysis of variance (ANOVA) of quality variables, the mediums were separated by Tukey multiple comparison test with a probability of error of 5%, using the Minitab statistical program version 13.1.
# The same compositions presented in table 2 were used to study the effect of the application of biological control agents, subject of this invention, on the quality of mango fruit cv. Kent.
# [3] = tested on: Colletotrichum gloeosporioides; assay: Field tests with solid dry compositions, pre-harvest application, severity of anthracnose on mango fruit; settings: mango cv. Kent, mix 10^6+10^4 UFC/mL, Benomyl 0.5 g/L
# Text: as §1, §2, §3
compound,measurement,setting,value
CCCCNC(=O)n1c(NC(=O)OC)nc2ccccc21 [Benomyl],% of severity after 15 days of storage,[1],41.7 b %
same,% of severity after 15 days of storage,[1]; listed as chemical treatment,41.7%
same,Weight loss (%),[2]; day 3 of storage at 20° C.,0.9 a %
same,Weight loss (%),[2]; day 6 of storage at 20° C.,1.6 a %
same,Weight loss (%),[2]; day 9 of storage at 20° C.,2.4 ab %
same,Weight loss (%),[2]; day 12 of storage at 20° C.,3.4 ab %
same,Weight loss (%),[2]; day 15 of storage at 20° C.,4.3 a %
same,Weight loss (%),"[2]; day 15 of storage at 20° C., listed as chemical treatment",4.3%
same,% severity,[3],25.0 b %
same,% severity,[3]; listed as chemical treatment,36.2%
